Values joined by “and” are separate entries in the source; they are usually repeats but may differ in a detail not shown here. Equal values may be shown once.
What was measured:
[1] = Fluorescence excitation and emission spectra of free (unbound) probes in aqueous solution; type: physicochemical; conditions: for Em (λmax) (Free) / Ex (λmax) (Free): free probe in aqueous solution; for fluorescence intensity of the free probe in aqueous solution compared to ARCAM (1): free probes in aqueous solution, FIG. 2
Procedure: (§1) Estimation of fluorescence enhancement of probes when bound versus unbound to aggregated Aβ (1-42) peptides. Aggregated Aβ (1-42) at a final concentration of 5 μM (based on the molecular weight of monomer) was mixed with each fluorescent probe at a final concentration of 4 μM in 5% DMSO in nanopure water. The solution (80 μL) was transferred to a black opaque 96 well plate and the fluorescence was read using a microplate reader. For all probes, the relative fluorescence enhancement of the bound versus unbound state was estimated by comparing the intensity at λmax of the amyloid-bound state.
(§2) Aggregated αS or Aβ(1-42) at a final concentration of 5 μM (based on the molecular weight of monomer) was mixed with each fluorescent probe at a final concentration of 4 μM in 5% DMSO in nanopure water. The solution (80 μL total volume) was transferred to a black opaque 96 well plate and the fluorescence excitation and emission were read using a microplate reader. For emission fluorescence enhancement, the relative fluorescence enhancement of the bound versus unbound state was estimated by comparing the fluorescence intensity at λmax of the amyloid-bound state.

[2] = Quantum yield measurements; type: physicochemical; conditions: 5% DMSO/H2O, reference standard Coumarin 30
Procedure: Quantum Yield Measurements. To determine the quantum yield (QY) of compounds ARCAM, 1-5, a procedure that was similar to a previously reported protocol for estimating the QY for Thioflavin T^24 was used. Briefly, the absorbance spectrum of each probe (in 5% Dimethyl Sulfoxide (DMSO)/water (H2O)), in addition to the absorbance spectrum for the reference standard (Coumarin 30, QY=0.67)^27 was measured. The wavelength at which the two normalized absorbance curves intersected was used as the excitation wavelength. A serial dilution of each probe and the standard was made with absorbance values at the excitation wavelength in the range of 0 to 0.1 absorbance units. At each concentration, the emission spectra for each probe and the standard were measured. Technical triplicates of these experiments were performed for all probes, and the averages were recorded. From these emission spectra, the area under the curve was calculated and plotted against the absorbance at each concentration (FIGS. 3-7). The data were fitted to Equation 1 to obtain estimates for QY: […]
where QY represents the quantum yield, A represents the absorbance, E represents the integrated fluorescence emission, η represents the refractive index of the solvent^28,29, and the ‘p’ and ‘r’ subscripts signify the probe or the reference compound, respectively.
Quantum Yield ((D) for each probe was measured as described previously.^31 Briefly, we measured the absorbance spectrum of each probe in 5% DMSO/H2O, as well as the absorbance spectrum for the reference standard (Coumarin 30, =0.67 in Acetonitrile). Both normalized absorbance curves were plotted, and the wavelength of intersection was used as the excitation wavelength. A serial dilution was made for each probe and the standard with absorbance values at the excitation wavelength varying between of 0 to 0.1 absorbance units. At each concentration, the emission spectra for each probe and the standard were measured. Each experiment was repeated in technical triplicates for all probes, and the averages were recorded. The integrated fluorescence emission was calculated and plotted against the absorbance at each concentration. The data were fitted to Equation Si to obtain estimates for Φ: […]
where Φ represents the quantum yield, A represents the absorbance, E represents the integrated fluorescence emission, η represents the refractive index of the solvent, and the ‘p’ and ‘r’ subscripts signify the probe or the reference compound, respectively.

[3] = target: T1, aggregated Aβ (1-42) peptides (Homo sapiens, UniProt P05067); experiment: Estimation of binding constant (KD) to aggregated Aβ (1-42) peptides; conditions: aggregated Aβ(1-42) 5 μM, increasing concentration of probe, 5% DMSO in nanopure water
T1 construct: Synthetic Aβ (1-42) peptide was purchased from Biopeptide, Co LLC; purchased Biopeptide, Co LLC (San Diego, California); host or cells: chemical synthesis
Procedure: (§3) Preparation of aggregated Aβ (1-42) peptides. Synthetic Aβ (1-42) peptide was purchased from Biopeptide, Co LLC (San Diego, California). Aggregated Aβ (1-42) was prepared as previously described.^26 Briefly, Aβ (1-42) was dissolved in 100% 1,1,1,3,3,3,-hexafluoro-2-propanol (HFIP) to a concentration of 1 mM and put on a shaker at room temperature (RT) for 24 hours. The solution was then diluted in cold nanopure water (2:1 H2O: HFIP). Aliquoted fractions were lyophilized for 3 days before dissolving in nanopure water to a concentration of 100 μM. Aggregated Aβ solutions were incubated and shaken at 37° C. for 3 days before use. The formation of soluble aggregates (67% fibrils as a mixture with 13% oligomers and 20% monomer) was confirmed using a standard thioflavin T (ThT) assay and by Sodium Dodecyl Sulphate-Polyacrylamide Gel Electrophoresis (SDS-PAGE) gel analysis (FIG. 11 and FIG. 12).
Estimation of Binding Constant (KD) to aggregated Aβ (1-42) peptides. Aggregated Aβ(1-42) at a final concentration of 5 μM (based on the molecular weight of monomer) was mixed with increasing concentration of each probe in 5% DMSO in nanopure water. KD's were determined as previously described.^21
(§4) Synthetic Aβ (1-42) peptide was purchased from Biopeptide, Co LLC (San Diego, California). Aggregated Aβ (1-42) was prepared as previously described.^32 Briefly, monomeric Aβ (1-42) was dissolved in 100% 1,1,1,3,3,3,-hexafluoro-2-propanol (HFIP) to a final concentration of 1 mM and dissolved on a shaker at RT for 24 hours. This solution was then diluted with cold nanopure water (2:1 H2O:HFIP) and aliquoted into fractions. These samples were then lyophilized for 3 days before dissolving in nanopure water to a final concentration of 100 μM. AD solutions were aggregated by incubating and shaking at 37° C. for 3 days before use. The formation of soluble aggregates was confirmed using a standard Thioflavin T (ThT) assay and by SDS-PAGE gel analysis.^1
(§5) Aggregated Aβ(1-42) or αS at a final concentration of 5 μM (based on the molecular weight of the monomer) was mixed with an increasing concentration of each probe in 5% DMSO in nanopure water. Kd's were calculated as previously described.^34 The measurements for each probe were repeated in technical triplicates and the averages are shown with standard deviations. Kd's for probes 1-3 with aggregated Aβ(1-42) have been reported previously.^31

[4] = target: T1, aggregated Aβ (1-42) peptides; experiment: Fluorescence excitation/emission and fluorescence enhancement of probes bound versus unbound to aggregated Aβ (1-42) peptides; type: binding; conditions: probe 4 μM; for Em (λmax) (with Aβ) / Ex (λmax) (with Aβ): aggregated Aβ (1-42) 5 μM; for Fold Increase with Aβ: fluorescence intensity with aggregated Aβ (1-42) 5 μM vs probe alone, at λmax of the amyloid-bound state
Procedure: as §3, §1, §4, §2

[5] = in Acetonitrile; cited from earlier work
aggregated αS [6] = target: T2, aggregated αS (Homo sapiens, UniProt P37840); experiment: Estimation of binding constant (Kd) to aggregated αS; conditions: probes of FIG. 14; aggregated αS 5 μM, increasing concentration of probe, 5% DMSO in nanopure water
T2 construct: made in house; host or cells: E. coli BL21 (plasmid pET5α aSynWT)
Procedure: (§6) Expression and purification of recombinant α-synuclein was followed as reported previously.^32 Briefly, α-synuclein was purified from BL21 E. coli as described: A starter culture of transformed bacteria (pET5α aSynWT) (LB broth with ampicillin [final concentration: 100 μg/mL]) was incubated overnight. Following incubation, 25 mL of the started culture was added to a 500 mL mixture of LB broth and ampicillin. Protein expression was induced by addition of IPTG [0.119 g/500 mL] when an OD600 between 0.5-0.8 was achieved. After 4 h, flasks were centrifuged (5,000×g for 20 min) and the supernatant was removed. The pellets were then re-suspended in 20 mM Tris, 25 mM NaCl, 1 mM EDTA, pH 8.0, transferred into a flask, boiled for 1-2 minutes in a microwave, and boiled in a water bath (90° C.) for 30 minutes. Samples were then centrifuged (18,000×g for 30 min) and the supernatant was collected and filtered through a 0.2 μm filter. α-synuclein protein was further purified using 2×5 ml HiTrapQ HP anion exchange columns (GE, #17-1153-01) followed by Size Exclusion Column (Superdex 200, #28-9893-35). Pure α-synuclein determined by Coomassie and western blot were lyophilized and stored at −80° C. until use.
(§7) Aggregation of purified α-synuclein was followed as reported previously.^33 The lyophilized powder was dissolved to a final concentration of 100 μM in sodium phosphate buffer (50 mM, pH 7.4) with 0.1 mM EDTA and 0.02% sodium azide (w/v) and was aggregated at 37° C. with shaking at 500 rpm for 3 weeks. Fibrillization was confirmed by SDS-PAGE gel and standard ThT assay.
as §5

aggregated αS [7] = target: T2, aggregated αS; experiment: Fluorescence emission and fluorescence enhancement of probes bound versus unbound to aggregated αS; type: binding; conditions: probes of FIG. 14
Procedure: as §6, §7, §2

T1 sequence (P05067 672-713): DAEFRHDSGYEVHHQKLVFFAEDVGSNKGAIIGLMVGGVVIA

Em (λmax) (Free) [1] [nm]	Ex (λmax) (Free) [1] [nm]	QY [2]	Kd [3] [µM]	Em (λmax) (with Aβ) ([4]; 5% DMSO in nanopure water) [nm]	Ex (λmax) (with Aβ) ([4]; 5% DMSO in nanopure water) [nm]	Fold Increase with Aβ ([4]; 5% DMSO in nanopure water)	Compound	fluorescence intensity of the free probe in aqueous solution compared to ARCAM (1) [1]	also measured
547 ± 5	419 ± 4	0.0012 ± 0.0004	3.7 ± 1.1	514 ± 6	410 ± 5	5.4 fold and 5.4 ± 0.9 fold	COCCOCCOCCNC(=O)C(C#N)=C(c1ccc2cc(N3CCCCC3)ccc2c1)C(F)(F)F (mixture of isomers) [Compound 3, (Z)-2-cyano-4,4,4-trifluoro-N-(2-(2-(2-methoxyethoxy)ethoxy)ethyl)-3-(6-(piperidin-1-yl)naphthalen-2-yl)but-2-enamide]	decreased in fluorescence intensity by two orders of magnitude	–
601 ± 2	372 ± 14	0.0016 ± 0.0005	5 ± 1.7	547 ± 4	364 ± 6	3.5 fold and 3.5 ± 0.9 fold	COCCOCCOCCNC(=O)/C(C#N)=C(\C)c1ccc2cc(N3CCCCC3)ccc2c1 [Compound 2, (E)-2-cyano-N-(2-(2-(2-methoxyethoxy)ethoxy)ethyl)-3-(6-(piperidin-1-yl)naphthalen-2-yl)but-2-enamide]	decreased in fluorescence intensity by two orders of magnitude	–
–	–	–	–	–	–	–	CCN(CC)c1ccc2cc(-c3nc4ccccc4n3C)c(=O)oc2c1 [Coumarin 30]	–	quantum yield of the reference standard [5]: 0.67
–	–	0.0006	–	–	–	–	Cc1ccc2c(c1)sc(-c1ccc(N(C)C)cc1)[n+]2C.[Cl-] [ThT, Thioflavin T, reference compound]	–	–
–	–	–	–	–	–	–	CCCC1CCCCN1c1ccc2cc(/C=C(\C#N)C(=O)NCCOCCOCCOC)ccc2c1 (stereo not drawn) [Probe 4, (E)-2-cyano-N-(2-(2-(2-methoxyethoxy)ethoxy)ethyl)-3-(6-(2-propylpiperidin-1-yl)naphthalen-2-yl)acrylamide]	–	Emmax (Free) ([1]; probes of FIG. 14, free): 578 nm; Kd (aggregated αS [6]): 0.5 ± 0.1 µM; Quantum Yield (Φ) ([2]; probes of FIG. 14): 0.0062; Kd ([3]; probes of FIG. 14): 4 ± 2.7 µM; Emmax (with Aβ) ([4]; probes of FIG. 14, aggregated Aβ(1-42) 5 μM, 5% DMSO in nanopure water): 558 nm; FI with Aβ ([4]; probes of FIG. 14, fold increase of fluorescence, bound vs unbound, aggregated Aβ(1-42) 5 μM): 1.8 ± 0.2; Emmax (with αS) (aggregated αS [7]; aggregated αS 5 μM, probe 4 μM, 5% DMSO in nanopure water): 539 nm; FI with αS (aggregated αS [7]; fold increase of fluorescence, bound vs unbound, aggregated αS 5 μM, probe 4 μM): 5.2 ± 0.8; FI αS/Aβ (aggregated αS [7]; selectivity of fluorescence response to αS fibrils over Aβ fibrils): 2.9
